Reference: PubChem BioAssay (NCI)
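Cells were grown in 96-well plates and exposed to each compound for 48 hours at five concentrations; endpoints were interpolated linearly between bracketing concentrations, or set to the highest concentration if not reached. TGI: concentration producing complete growth inhibition.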

Legend:
Assay in all cases: growth of human tumour cells (NCI), 48 h
K-562 leukemia = tested on: K-562 leukemia
SW-620 colon = tested on: SW-620 colon
HOP-92 NSCLC = tested on: HOP-92 NSCLC
UO-31 renal = tested on: UO-31 renal
CCRF-CEM leukemia = tested on: CCRF-CEM leukemia
SNB-19 CNS = tested on: SNB-19 CNS
PC-3 prostate = tested on: PC-3 prostate
MDA-N = tested on: MDA-N
MALME-3M melanoma = tested on: MALME-3M melanoma
SK-MEL-5 melanoma = tested on: SK-MEL-5 melanoma
M14 melanoma = tested on: M14 melanoma
OVCAR-3 ovarian = tested on: OVCAR-3 ovarian
SF-268 CNS = tested on: SF-268 CNS
IGROV1 ovarian = tested on: IGROV1 ovarian
OVCAR-5 ovarian = tested on: OVCAR-5 ovarian
MDA-MB-435 = tested on: MDA-MB-435
MDA-MB-231 breast = tested on: MDA-MB-231 breast
COLO 205 colon = tested on: COLO 205 colon
U251 CNS = tested on: U251 CNS
SK-MEL-28 melanoma = tested on: SK-MEL-28 melanoma
CAKI-1 renal = tested on: CAKI-1 renal
T-47D breast = tested on: T-47D breast
HCT-116 colon = tested on: HCT-116 colon
SF-539 CNS = tested on: SF-539 CNS
SR leukemia = tested on: SR leukemia
A549 NSCLC = tested on: A549 NSCLC
MCF7 breast = tested on: MCF7 breast
MOLT-4 leukemia = tested on: MOLT-4 leukemia
SF-295 CNS = tested on: SF-295 CNS
TK-10 renal = tested on: TK-10 renal
HCC-2998 colon = tested on: HCC-2998 colon
SNB-75 CNS = tested on: SNB-75 CNS
UACC-257 melanoma = tested on: UACC-257 melanoma
786-0 renal = tested on: 786-0 renal
HS 578T breast = tested on: HS 578T breast
RPMI-8226 leukemia = tested on: RPMI-8226 leukemia
NCI-H23 lung = tested on: NCI-H23 lung
HCT-15 colon = tested on: HCT-15 colon
HL-60(TB) leukemia = tested on: HL-60(TB) leukemia
SN12C renal = tested on: SN12C renal
HOP-62 NSCLC = tested on: HOP-62 NSCLC
NCI-H460 lung = tested on: NCI-H460 lung
RXF 393 renal = tested on: RXF 393 renal
SK-MEL-2 melanoma = tested on: SK-MEL-2 melanoma
ACHN renal = tested on: ACHN renal
KM12 colon = tested on: KM12 colon
LOX IMVI melanoma = tested on: LOX IMVI melanoma
EKVX NSCLC = tested on: EKVX NSCLC
DU-145 prostate = tested on: DU-145 prostate
UACC-62 melanoma = tested on: UACC-62 melanoma
NCI-H522 lung = tested on: NCI-H522 lung
A498 renal = tested on: A498 renal
SK-OV-3 ovarian = tested on: SK-OV-3 ovarian
NCI/ADR-RES ovarian = tested on: NCI/ADR-RES ovarian
HT29 colon = tested on: HT29 colon
OVCAR-8 ovarian = tested on: OVCAR-8 ovarian
NCI-H226 lung = tested on: NCI-H226 lung
OVCAR-4 ovarian = tested on: OVCAR-4 ovarian

Cc1ccc(Nc2nc(C)c(C(=O)CC(=O)C(=O)Nc3ccc(Cl)cc3)s2)cc1
TGI (K-562 leukemia): > 100 µM
TGI (SW-620 colon): > 100 µM
TGI (HOP-92 NSCLC): > 100 µM
TGI (UO-31 renal): > 100 µM
TGI (CCRF-CEM leukemia): > 100 µM
TGI (SNB-19 CNS): > 100 µM
TGI (PC-3 prostate): > 100 µM
TGI (MDA-N): > 100 µM
TGI (MALME-3M melanoma): > 100 µM
TGI (SK-MEL-5 melanoma): > 100 µM
TGI (M14 melanoma): > 100 µM
TGI (OVCAR-3 ovarian): > 100 µM
TGI (SF-268 CNS): > 100 µM
TGI (IGROV1 ovarian): > 100 µM
TGI (OVCAR-5 ovarian): > 100 µM
TGI (MDA-MB-435): > 100 µM
TGI (MDA-MB-231 breast): > 100 µM
TGI (COLO 205 colon): > 100 µM
TGI (U251 CNS): > 100 µM
TGI (SK-MEL-28 melanoma): > 100 µM
TGI (CAKI-1 renal): > 100 µM
TGI (T-47D breast): > 100 µM
TGI (HCT-116 colon): > 100 µM
TGI (SF-539 CNS): > 100 µM
TGI (SR leukemia): > 100 µM
TGI (A549 NSCLC): > 100 µM
TGI (MCF7 breast): > 100 µM
TGI (MOLT-4 leukemia): > 100 µM
TGI (SF-295 CNS): > 100 µM
TGI (TK-10 renal): > 100 µM
TGI (HCC-2998 colon): > 100 µM
TGI (SNB-75 CNS): > 100 µM
TGI (UACC-257 melanoma): > 100 µM
TGI (786-0 renal): > 100 µM
TGI (HS 578T breast): > 100 µM
TGI (RPMI-8226 leukemia): > 100 µM
TGI (NCI-H23 lung): > 100 µM
TGI (HCT-15 colon): > 100 µM
TGI (HL-60(TB) leukemia): > 100 µM
TGI (SN12C renal): > 100 µM
TGI (HOP-62 NSCLC): > 100 µM
TGI (NCI-H460 lung): > 100 µM
TGI (RXF 393 renal): > 100 µM
TGI (SK-MEL-2 melanoma): > 100 µM
TGI (ACHN renal): > 100 µM
TGI (KM12 colon): > 100 µM
TGI (LOX IMVI melanoma): > 100 µM
TGI (EKVX NSCLC): > 100 µM
TGI (DU-145 prostate): > 100 µM
TGI (UACC-62 melanoma): > 100 µM
TGI (NCI-H522 lung): > 100 µM
TGI (A498 renal): > 100 µM
TGI (SK-OV-3 ovarian): > 100 µM

O=C(N=Nc1ccc(Br)cc1)NNc1ccc(Br)cc1
TGI (K-562 leukemia): 25 µM
TGI (HOP-92 NSCLC): 30.7 µM
TGI (UO-31 renal): 65.2 µM
TGI (CCRF-CEM leukemia): 18.2 µM
TGI (SNB-19 CNS): > 100 µM
TGI (PC-3 prostate): 31.9 µM
TGI (MDA-N): 64.7 µM
TGI (MALME-3M melanoma): 87.1 µM
TGI (SK-MEL-5 melanoma): 26.9 µM
TGI (M14 melanoma): 31.8 µM
TGI (NCI/ADR-RES ovarian): 43.3 µM
TGI (OVCAR-3 ovarian): 30.5 µM
TGI (IGROV1 ovarian): 64.7 µM
TGI (OVCAR-5 ovarian): 57.1 µM
TGI (MDA-MB-435): 46.1 µM
TGI (HT29 colon): 33.1 µM
TGI (MDA-MB-231 breast): 47.2 µM
TGI (COLO 205 colon): 48.9 µM
TGI (U251 CNS): 34.7 µM
TGI (SK-MEL-28 melanoma): 64.5 µM
TGI (CAKI-1 renal): 52.9 µM
TGI (T-47D breast): > 100 µM
TGI (HCT-116 colon): 31.3 µM
TGI (SR leukemia): > 100 µM
TGI (MCF7 breast): 40.8 µM
TGI (MOLT-4 leukemia): 26 µM
TGI (SF-295 CNS): > 100 µM
TGI (HCC-2998 colon): 55.7 µM
TGI (OVCAR-8 ovarian): > 100 µM
TGI (SNB-75 CNS): 61.9 µM
TGI (NCI-H226 lung): 47.1 µM
TGI (RPMI-8226 leukemia): 78 µM
TGI (NCI-H23 lung): 68.9 µM
TGI (HCT-15 colon): 58.2 µM
TGI (HL-60(TB) leukemia): > 100 µM
TGI (HOP-62 NSCLC): 32.6 µM
TGI (NCI-H460 lung): 44 µM
TGI (RXF 393 renal): 28.7 µM
TGI (SK-MEL-2 melanoma): 37.9 µM
TGI (KM12 colon): 35.1 µM
TGI (DU-145 prostate): > 100 µM
TGI (UACC-62 melanoma): 27.2 µM
TGI (NCI-H522 lung): 31 µM
TGI (A498 renal): > 100 µM
TGI (SK-OV-3 ovarian): 74 µM

COc1ccc2cc(C(=O)Nc3ccc(O)c(C(=O)O)c3)ccc2c1OC
TGI (K-562 leukemia): > 100 µM
TGI (SW-620 colon): > 100 µM
TGI (UO-31 renal): > 100 µM
TGI (CCRF-CEM leukemia): > 100 µM
TGI (SNB-19 CNS): > 100 µM
TGI (PC-3 prostate): > 100 µM
TGI (MDA-N): > 100 µM
TGI (MALME-3M melanoma): > 100 µM
TGI (SK-MEL-5 melanoma): > 100 µM
TGI (M14 melanoma): > 100 µM
TGI (NCI/ADR-RES ovarian): > 100 µM
TGI (OVCAR-3 ovarian): > 100 µM
TGI (SF-268 CNS): > 100 µM
TGI (IGROV1 ovarian): > 100 µM
TGI (OVCAR-5 ovarian): > 100 µM
TGI (MDA-MB-435): > 100 µM
TGI (HT29 colon): > 100 µM
TGI (MDA-MB-231 breast): > 100 µM
TGI (U251 CNS): > 100 µM
TGI (SK-MEL-28 melanoma): > 100 µM
TGI (CAKI-1 renal): > 100 µM
TGI (T-47D breast): > 100 µM
TGI (HCT-116 colon): > 100 µM
TGI (SF-539 CNS): > 100 µM
TGI (SR leukemia): > 100 µM
TGI (MCF7 breast): > 100 µM
TGI (MOLT-4 leukemia): > 100 µM
TGI (TK-10 renal): > 100 µM
TGI (HCC-2998 colon): > 100 µM
TGI (OVCAR-8 ovarian): > 100 µM
TGI (SNB-75 CNS): > 100 µM
TGI (UACC-257 melanoma): > 100 µM
TGI (786-0 renal): > 100 µM
TGI (NCI-H226 lung): > 100 µM
TGI (RPMI-8226 leukemia): > 100 µM
TGI (NCI-H23 lung): > 100 µM
TGI (HCT-15 colon): > 100 µM
TGI (HL-60(TB) leukemia): > 100 µM
TGI (SN12C renal): > 100 µM
TGI (HOP-62 NSCLC): > 100 µM
TGI (NCI-H460 lung): > 100 µM
TGI (SK-MEL-2 melanoma): > 100 µM
TGI (ACHN renal): > 100 µM
TGI (KM12 colon): > 100 µM
TGI (LOX IMVI melanoma): > 100 µM
TGI (EKVX NSCLC): > 100 µM
TGI (DU-145 prostate): > 100 µM
TGI (OVCAR-4 ovarian): > 100 µM
TGI (UACC-62 melanoma): > 100 µM
TGI (NCI-H522 lung): > 100 µM
TGI (SK-OV-3 ovarian): > 100 µM
